Measured values reported in patent US9499519B2, “Fused pyrimidine compounds and use thereof” (Medivation Technologies, Inc., priority 2012, dated 2016).
Read-outs that look alike come from different tables or passages of the source. One block for each molecule: values may come before it.

Assays:
IGF-1R = target: T1, IGF-1R (Homo sapiens, UniProt P08069); experiment: In vitro IGF-1R enzymatic assay (ADP-Glo kinase assay); type: biochemical; details: activated IGF-1R; for inhibition at 1 µM: in duplicate, read-out: inhibition of binding
T1 construct: purchased Millipore 14-802
Protocol: (§1) IC50 values of the compounds of the invention against IGF-1R and IR were measured in vitro using an ADP-Glo kinase assay Kit (Promega). […] Kinase reactions in both assays were conducted at 30° C. for 20 min with increasing concentrations of compounds of the invention.
Additional compounds of the invention were screened against activated IGF-1R.

Trk B = Trk B (Homo sapiens, UniProt Q16620); experiment: HotSpot kinase assay: Trk B; type: biochemical; details: 100 nM compound; for inhibition at 0.1 µM: read-out: % Enzyme Inhibition @ 100 nM Trk B
Protocol: (§2) Each compound was tested at a concentration of 0.1 μM in single duplicate mode against the 3 kinases. Compounds were prepared as 10 mM stock solutions in DMSO prior to use in the assay. […] IC50 values and curve fits were obtained using Prism (GraphPad Software).
(§3) The screening was performed using the “HotSpot” assay platform. The assay measures the conversion of a peptide substrate to ^33P-labelled phosphorylated product. Briefly, specific kinase/substrate pairs along with required cofactors were prepared in reaction buffer. Specifically, the substrate was prepared in reaction buffer (20 mM Hepes, pH 7.5; 10 mM MgCl2; 1 mM EGTA; 0.02% Brij35; 0.02 mg/mL BSA; 0.1 mM Na3VO4; 2 mM DTT; 1% DMSO), followed by delivery of any required cofactor to the resulting substrate solution. The corresponding kinase was delivered into the substrate solution and the reaction mixture was mixed gently. Compound was delivered into the reaction mixture, followed 15-20 minutes later by addition of a mixture of ATP (Sigma, St. Louis Mo.) and ^33P ATP (specific activity 0.01 μCi/μL final; Perkin Elmer, Waltham, Mass.) to a final concentration of 10 μM-30 μM to initiate the reaction. […] The percent of enzyme inhibition was calculated based on the percent of remaining kinase activity.

Trk A = Trk A (Homo sapiens, UniProt P04629); experiment: HotSpot kinase assay: Trk A; type: biochemical; details: 100 nM compound; for inhibition at 0.1 µM: read-out: % Enzyme Inhibition @ 100 nM Trk A
Protocol: as §2, with “Kinase assays were performed using additional compounds against a panel of 3 kinases: Trk A; Trk B; and Trk C. Each” for “Each”, “Software). […]” for “Software).”
The screening was performed using the “HotSpot” assay platform. The assay measures the conversion of a peptide substrate to ^33P-labelled phosphorylated product. Briefly, specific kinase/substrate pairs along with required cofactors were prepared in reaction buffer. Specifically, the substrate was prepared in reaction buffer (20 mM Hepes, pH 7.5; 10 mM MgCl2; 1 mM EGTA; 0.02% Brij35; 0.02 mg/mL BSA; 0.1 mM Na3VO4; 2 mM DTT; 1% DMSO), followed by delivery of any required cofactor to the resulting substrate solution. The corresponding kinase was delivered into the substrate solution and the reaction mixture was mixed gently. Compound was delivered into the reaction mixture, followed 15-20 minutes later by addition of a mixture of ATP (Sigma, St. Louis Mo.) and ^33P ATP (specific activity 0.01 μCi/μL final; Perkin Elmer, Waltham, Mass.) to a final concentration of 10 μM-30 μM to initiate the reaction. Reactions were carried out at room temperature for 120 minutes, followed by spotting of the reactions onto P81 ion exchange filter paper (Whatman #3698-915; Whatman Inc., Piscataway, N.J.). Unbound phosphate was removed by extensive washing of filters in 0.75% phosphoric acid. […] The percent of enzyme inhibition was calculated based on the percent of remaining kinase activity.

IR [1] = target: T2, IR (Homo sapiens, UniProt P06213); experiment: In vitro IR enzymatic assay (ADP-Glo kinase assay); type: biochemical; details: activated IR, in duplicate, read-out: inhibition of binding
T2 construct: purchased Millipore 14-803

Trk C = Trk C (Homo sapiens, UniProt Q16288); experiment: HotSpot kinase assay: Trk C; type: biochemical; details: 100 nM compound, HotSpot; for inhibition at 0.1 µM: read-out: % Enzyme Inhibition @ 100 nM Trk C
Protocol: as §2, §3
as §2, with “Kinase assays were performed using additional compounds against a panel of 4 kinases: AXL; c-Met; c-Mer; and Trk C. Each” for “Each”, “[…]” for “μM”, “4” for “3”

[2] = tested on: Akt phosphorylation induced by IGF-1R; experiment: Western blot analysis of Akt phosphorylation induced by IGF-1 in HT-29 cells; type: cell-based, Human; details: for Levels of phosphorylated AKT in treated cells (pAKT/actin): HT-29 cells, IGF-1; for p-AKT relative to levels with 0.1 nM compound: Table B2 lower part; for Normalized phosphorylated AKT (relative to actin) levels relative to 0.1 nM compound treatment: Table B2 upper part
How it was run: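 Phospho-Akt assessed by western blot in serum-depleted (24 h) human colon carcinoma HT-29 cells. Compounds applied for 2 h at 0.1–100 (0.1, 1, 10, 100); vehicle DMSO and 10 ng/mL IGF-1 served as controls. Protein in cleared lysates measured by BCA assay.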

IR [3] = target: T2, IR; experiment: In vitro IR enzymatic assay (ADP-Glo kinase assay); type: biochemical; details: activated IR, 30 nM
Protocol: as §1
Additional compounds of the invention were screened against activated IR.

T1 sequence (P08069 31-1367): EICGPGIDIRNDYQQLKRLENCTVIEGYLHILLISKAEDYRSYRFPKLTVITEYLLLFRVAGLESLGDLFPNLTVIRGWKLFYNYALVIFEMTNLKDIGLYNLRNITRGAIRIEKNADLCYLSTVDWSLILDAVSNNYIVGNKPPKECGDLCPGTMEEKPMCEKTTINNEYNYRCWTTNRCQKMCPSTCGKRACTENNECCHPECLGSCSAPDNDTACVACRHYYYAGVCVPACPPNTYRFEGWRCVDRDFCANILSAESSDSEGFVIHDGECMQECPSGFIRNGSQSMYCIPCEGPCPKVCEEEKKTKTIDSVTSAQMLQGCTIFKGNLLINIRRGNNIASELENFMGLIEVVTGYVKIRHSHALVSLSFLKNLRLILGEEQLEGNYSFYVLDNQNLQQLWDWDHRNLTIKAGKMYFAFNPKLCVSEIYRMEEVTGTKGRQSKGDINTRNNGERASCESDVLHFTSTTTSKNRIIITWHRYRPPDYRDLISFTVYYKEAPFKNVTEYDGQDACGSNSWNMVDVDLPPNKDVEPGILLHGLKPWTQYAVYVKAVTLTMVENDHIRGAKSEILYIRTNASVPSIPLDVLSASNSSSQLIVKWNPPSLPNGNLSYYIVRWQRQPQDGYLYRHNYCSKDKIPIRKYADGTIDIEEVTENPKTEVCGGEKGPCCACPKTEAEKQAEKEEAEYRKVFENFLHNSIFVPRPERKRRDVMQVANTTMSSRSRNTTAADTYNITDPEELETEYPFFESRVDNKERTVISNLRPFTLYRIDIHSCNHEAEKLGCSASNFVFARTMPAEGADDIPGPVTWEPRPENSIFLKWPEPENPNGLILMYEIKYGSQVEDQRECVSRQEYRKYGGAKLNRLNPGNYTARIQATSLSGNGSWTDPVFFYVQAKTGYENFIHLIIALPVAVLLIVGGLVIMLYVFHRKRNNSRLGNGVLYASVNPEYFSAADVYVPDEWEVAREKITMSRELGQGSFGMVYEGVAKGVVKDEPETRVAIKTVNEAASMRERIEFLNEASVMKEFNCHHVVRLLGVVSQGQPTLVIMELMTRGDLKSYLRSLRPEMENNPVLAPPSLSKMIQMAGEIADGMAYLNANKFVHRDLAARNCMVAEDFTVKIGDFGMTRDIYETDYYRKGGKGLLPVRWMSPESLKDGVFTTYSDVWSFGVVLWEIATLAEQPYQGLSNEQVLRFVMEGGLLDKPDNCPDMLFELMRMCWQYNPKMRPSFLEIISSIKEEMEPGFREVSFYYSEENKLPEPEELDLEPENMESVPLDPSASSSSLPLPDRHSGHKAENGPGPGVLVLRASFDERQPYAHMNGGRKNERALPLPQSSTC
Trk C, sequence (Q16288 32-839): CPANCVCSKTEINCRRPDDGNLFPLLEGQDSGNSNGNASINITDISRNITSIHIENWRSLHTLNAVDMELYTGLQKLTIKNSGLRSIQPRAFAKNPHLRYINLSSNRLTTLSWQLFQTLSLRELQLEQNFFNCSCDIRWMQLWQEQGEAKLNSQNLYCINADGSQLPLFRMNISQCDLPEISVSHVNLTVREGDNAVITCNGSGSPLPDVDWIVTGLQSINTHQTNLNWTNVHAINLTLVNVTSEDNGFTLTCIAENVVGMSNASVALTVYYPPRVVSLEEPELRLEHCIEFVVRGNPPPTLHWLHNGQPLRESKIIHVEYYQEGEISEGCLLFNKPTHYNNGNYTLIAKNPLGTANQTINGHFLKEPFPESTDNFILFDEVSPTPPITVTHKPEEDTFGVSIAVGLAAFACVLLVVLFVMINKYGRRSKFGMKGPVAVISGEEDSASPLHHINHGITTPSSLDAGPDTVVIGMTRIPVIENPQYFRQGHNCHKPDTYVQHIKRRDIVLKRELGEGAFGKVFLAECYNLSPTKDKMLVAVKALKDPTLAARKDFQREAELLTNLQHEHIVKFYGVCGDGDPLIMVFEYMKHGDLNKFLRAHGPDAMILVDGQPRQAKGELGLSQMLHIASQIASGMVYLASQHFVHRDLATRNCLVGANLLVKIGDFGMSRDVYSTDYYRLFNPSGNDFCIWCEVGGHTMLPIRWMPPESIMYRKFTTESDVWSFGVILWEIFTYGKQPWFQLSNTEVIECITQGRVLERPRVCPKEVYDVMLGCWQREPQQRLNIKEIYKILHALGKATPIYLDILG
Trk B, sequence (Q16620 32-822): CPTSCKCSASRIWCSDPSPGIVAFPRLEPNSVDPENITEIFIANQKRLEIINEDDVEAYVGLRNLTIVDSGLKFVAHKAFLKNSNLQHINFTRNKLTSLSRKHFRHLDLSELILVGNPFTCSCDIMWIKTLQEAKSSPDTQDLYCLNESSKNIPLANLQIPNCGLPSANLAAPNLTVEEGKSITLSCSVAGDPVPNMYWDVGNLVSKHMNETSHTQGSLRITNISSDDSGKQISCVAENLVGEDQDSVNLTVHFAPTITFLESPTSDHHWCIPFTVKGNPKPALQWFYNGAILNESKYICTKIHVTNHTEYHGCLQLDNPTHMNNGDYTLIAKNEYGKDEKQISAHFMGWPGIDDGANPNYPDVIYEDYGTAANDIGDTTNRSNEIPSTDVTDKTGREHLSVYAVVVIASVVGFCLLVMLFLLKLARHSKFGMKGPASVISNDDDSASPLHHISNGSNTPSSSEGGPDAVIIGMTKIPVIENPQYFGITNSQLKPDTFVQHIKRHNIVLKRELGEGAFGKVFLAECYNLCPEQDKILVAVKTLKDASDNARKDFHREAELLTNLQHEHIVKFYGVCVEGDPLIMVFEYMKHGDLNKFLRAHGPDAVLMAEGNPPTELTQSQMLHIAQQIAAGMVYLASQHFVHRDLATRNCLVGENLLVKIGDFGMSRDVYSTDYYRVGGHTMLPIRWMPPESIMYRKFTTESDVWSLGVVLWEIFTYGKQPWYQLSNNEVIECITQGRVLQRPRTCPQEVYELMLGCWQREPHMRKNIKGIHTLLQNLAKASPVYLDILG
Trk A, sequence (P04629 33-796): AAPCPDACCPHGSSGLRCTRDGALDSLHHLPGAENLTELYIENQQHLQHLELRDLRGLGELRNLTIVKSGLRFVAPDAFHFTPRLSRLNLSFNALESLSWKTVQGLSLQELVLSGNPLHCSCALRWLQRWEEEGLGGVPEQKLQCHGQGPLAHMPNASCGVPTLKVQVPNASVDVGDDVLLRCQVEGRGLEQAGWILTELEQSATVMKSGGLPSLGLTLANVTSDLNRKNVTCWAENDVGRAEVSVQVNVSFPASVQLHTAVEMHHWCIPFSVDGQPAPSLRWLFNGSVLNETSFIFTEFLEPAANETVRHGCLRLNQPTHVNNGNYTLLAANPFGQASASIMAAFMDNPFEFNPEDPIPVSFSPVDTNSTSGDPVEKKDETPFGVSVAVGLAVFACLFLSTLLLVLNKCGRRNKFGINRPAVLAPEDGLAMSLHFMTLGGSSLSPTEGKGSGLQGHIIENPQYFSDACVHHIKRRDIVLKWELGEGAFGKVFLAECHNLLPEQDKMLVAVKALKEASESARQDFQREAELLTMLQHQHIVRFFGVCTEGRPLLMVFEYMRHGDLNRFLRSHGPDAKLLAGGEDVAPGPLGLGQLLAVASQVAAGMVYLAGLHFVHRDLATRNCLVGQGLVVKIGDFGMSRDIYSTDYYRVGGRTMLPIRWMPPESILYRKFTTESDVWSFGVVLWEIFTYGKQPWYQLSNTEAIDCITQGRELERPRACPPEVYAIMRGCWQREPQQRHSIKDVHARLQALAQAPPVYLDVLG
T2 sequence (P06213 28-1382): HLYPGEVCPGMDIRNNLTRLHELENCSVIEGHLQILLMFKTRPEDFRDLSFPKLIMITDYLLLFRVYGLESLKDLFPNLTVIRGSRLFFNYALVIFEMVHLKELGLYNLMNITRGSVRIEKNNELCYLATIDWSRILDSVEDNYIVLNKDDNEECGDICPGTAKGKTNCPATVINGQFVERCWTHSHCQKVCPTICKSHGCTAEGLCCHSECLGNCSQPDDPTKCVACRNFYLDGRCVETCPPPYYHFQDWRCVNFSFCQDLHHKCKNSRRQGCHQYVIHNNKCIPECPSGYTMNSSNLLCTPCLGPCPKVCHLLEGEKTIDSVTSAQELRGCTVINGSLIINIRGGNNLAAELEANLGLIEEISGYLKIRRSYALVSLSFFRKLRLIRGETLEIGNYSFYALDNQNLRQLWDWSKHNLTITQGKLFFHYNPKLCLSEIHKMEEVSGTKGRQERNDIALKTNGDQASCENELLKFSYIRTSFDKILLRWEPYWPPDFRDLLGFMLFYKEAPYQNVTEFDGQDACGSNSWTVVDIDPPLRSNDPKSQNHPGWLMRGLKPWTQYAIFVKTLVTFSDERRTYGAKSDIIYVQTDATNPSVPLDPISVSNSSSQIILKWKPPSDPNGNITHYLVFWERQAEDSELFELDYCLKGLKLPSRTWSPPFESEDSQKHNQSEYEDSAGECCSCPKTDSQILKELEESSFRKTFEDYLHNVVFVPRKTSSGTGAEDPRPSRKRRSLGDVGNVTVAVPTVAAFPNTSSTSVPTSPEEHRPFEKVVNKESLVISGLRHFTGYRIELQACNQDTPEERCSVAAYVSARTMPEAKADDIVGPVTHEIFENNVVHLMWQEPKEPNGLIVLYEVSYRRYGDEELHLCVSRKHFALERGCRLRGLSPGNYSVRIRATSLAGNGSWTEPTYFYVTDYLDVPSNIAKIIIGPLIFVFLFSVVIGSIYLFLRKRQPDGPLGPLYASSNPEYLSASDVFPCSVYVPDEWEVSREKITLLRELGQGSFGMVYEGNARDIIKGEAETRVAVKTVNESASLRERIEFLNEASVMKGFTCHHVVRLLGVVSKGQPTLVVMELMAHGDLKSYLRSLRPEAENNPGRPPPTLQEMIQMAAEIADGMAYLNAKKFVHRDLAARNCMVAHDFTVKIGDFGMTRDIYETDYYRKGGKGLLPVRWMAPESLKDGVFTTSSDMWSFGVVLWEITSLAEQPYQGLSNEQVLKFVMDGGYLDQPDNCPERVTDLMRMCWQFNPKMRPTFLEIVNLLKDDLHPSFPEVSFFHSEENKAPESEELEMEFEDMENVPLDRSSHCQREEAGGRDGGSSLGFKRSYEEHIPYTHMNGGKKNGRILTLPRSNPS

Structure (SMILES): O=C(C1CC(O)CN1c1nc2c(c(Nc3cc(C4CCCC4)[nH]n3)n1)CCC2)N1CCCCC1 (stereo not shown) [Compound 108a, (1-(4-(5-cyclopentyl-1H-pyrazol-3-ylamino)-6,7-dihydro-5H-cyclopenta[d]pyrimidin-2-yl)-4-hydroxypyrrolidin-2-yl)(piperidin-1-yl)methanone]
inhibition at 1 µM (IGF-1R): < 35% | % Enzyme Inhibition @ 100 nM Trk B (Trk B): +++ (High (60% or higher inhibition, +++)) | % Enzyme Inhibition @ 100 nM Trk A (Trk A): + (Low (39% or lower inhibition, +)) | inhibition at 1 µM (IR [1]): ≤ 40% | % Enzyme Inhibition @ 100 nM Trk C (Trk C): +++ (High (60% or higher inhibition, +++))

Structure (SMILES): CC(C)c1cc(Nc2nc(N3CC(O)CC3C(=O)N3CCCCC3)nc3c2CCC3)n[nH]1 (stereo not shown) [Compound 107b, (4-hydroxy-1-(4-(5-isopropyl-1H-pyrazol-3-ylamino)-6,7-dihydro-5H-cyclopenta[d]pyrimidin-2-yl)pyrrolidin-2-yl)(piperidin-1-yl)methanone]
inhibition at 0.1 µM (Trk B): < 39% | inhibition at 0.1 µM (Trk A): < 39% | % Enzyme Inhibition @ 100 nM Trk C (Trk C): + (Low (39% or lower inhibition, +))

Structure (SMILES): CC(C)c1cc(Nc2nc(N3CCCC3C(=O)Nc3ccc(F)nc3)nc3c2CCCC3)n[nH]1 (single isomer, unassigned) [Compound 13a, N-(6-fluoropyridin-3-yl)-1-(4-(5-isopropyl-1H-pyrazol-3-ylamino)-5,6,7,8-tetrahydroquinazolin-2-yl)pyrrolidine-2-carboxamide]
inhibition at 0.03 µM (IGF-1R; 30 nM, N1, read-out: % Inh @ 30 nM (N1)): 10% | inhibition at 0.03 µM (IGF-1R; 30 nM, N2, read-out: % Inh @ 30 nM (N2)): 34% | inhibition at 0.03 µM (IGF-1R; 30 nM, average, read-out: % Inh @ 30 nM Avg): 22% | Levels of phosphorylated AKT in treated cells (pAKT/actin) ([2]; 0.1 nM compound): 0.51 | p-AKT relative to levels with 0.1 nM compound ([2]; 0.1 nM): 1.0 | Normalized phosphorylated AKT (relative to actin) levels relative to 0.1 nM compound treatment ([2]; 0.1 nM): 1.0 | Levels of phosphorylated AKT in treated cells (pAKT/actin) ([2]; 1 nM compound): 0.54 | p-AKT relative to levels with 0.1 nM compound ([2]; 1 nM): 1.1 | Normalized phosphorylated AKT (relative to actin) levels relative to 0.1 nM compound treatment ([2]; 1 nM): 1.1 | Levels of phosphorylated AKT in treated cells (pAKT/actin) ([2]; 10 nM compound): 0.45 | p-AKT relative to levels with 0.1 nM compound ([2]; 10 nM): 0.9 | Normalized phosphorylated AKT (relative to actin) levels relative to 0.1 nM compound treatment ([2]; 10 nM): 0.9 | Levels of phosphorylated AKT in treated cells (pAKT/actin) ([2]; 100 nM compound): 0.80 | p-AKT relative to levels with 0.1 nM compound ([2]; 100 nM): 1.6 | Normalized phosphorylated AKT (relative to actin) levels relative to 0.1 nM compound treatment ([2]; 100 nM): 1.6 | inhibition at 0.03 µM (IR [3]; N1, read-out: % Inh @ 30 nM (N1)): 4% | inhibition at 0.03 µM (IR [3]; N2, read-out: % Inh @ 30 nM (N2)): -1% | inhibition at 0.03 µM (IR [3]; average, read-out: % Inh @ 30 nM Avg): 2%

Structure (SMILES): O=C(Nc1ccc(F)nc1)C1C(O)CCN1c1nc2c(c(Nc3cc(C4CC4)[nH]n3)n1)CCC2 (single isomer, unassigned) [Compound 11b, 1-(4-(5-cyclopropyl-1H-pyrazol-3-ylamino)-6,7-dihydro-5H-cyclopenta[d]pyrimidin-2-yl)-N-(6-fluoropyridin-3-yl)-3-hydroxypyrrolidine-2-carboxamide]
% Inh @ 30 nM (N1) (IGF-1R; 30 nM, N1, 0.03 µM): 22% | % Inh @ 30 nM (N2) (IGF-1R; 30 nM, N2, 0.03 µM): 11% | % Inh @ 30 nM Avg (IGF-1R; 30 nM, average): 17% | Levels of phosphorylated AKT in treated cells (pAKT/actin) ([2]; 0.1 nM compound): 1.55 | p-AKT relative to levels with 0.1 nM compound ([2]; 0.1 nM): 1.0 | Normalized phosphorylated AKT (relative to actin) levels relative to 0.1 nM compound treatment ([2]; 0.1 nM): 1.0 | Levels of phosphorylated AKT in treated cells (pAKT/actin) ([2]; 1 nM compound): 1.76 | p-AKT relative to levels with 0.1 nM compound ([2]; 1 nM): 1.1 | Normalized phosphorylated AKT (relative to actin) levels relative to 0.1 nM compound treatment ([2]; 1 nM): 1.1 | Levels of phosphorylated AKT in treated cells (pAKT/actin) ([2]; 10 nM compound): 1.43 | p-AKT relative to levels with 0.1 nM compound ([2]; 10 nM): 0.9 | Normalized phosphorylated AKT (relative to actin) levels relative to 0.1 nM compound treatment ([2]; 10 nM): 0.9 | Levels of phosphorylated AKT in treated cells (pAKT/actin) ([2]; 100 nM compound): 0.33 | p-AKT relative to levels with 0.1 nM compound ([2]; 100 nM): 0.2 | Normalized phosphorylated AKT (relative to actin) levels relative to 0.1 nM compound treatment ([2]; 100 nM): 0.2 | % Inh @ 30 nM (N1) (IR [3]; N1, 0.03 µM): −2% | % Inh @ 30 nM (N2) (IR [3]; N2, 0.03 µM): 9% | % Inh @ 30 nM Avg (IR [3]; average): 3%

Continued, in another order:

inhibition at 0.1 µM (Trk B): > 60% | inhibition at 0.1 µM (Trk A): < 39% | inhibition at 0.1 µM (Trk C): > 60%
Structure (SMILES): CN(C)C(=O)C1CCCN1c1nc2c(c(Nc3cc(C4CCCCC4)[nH]n3)n1)CCC2 (stereo not shown) [Compound 114b, 1-(4-(5-cyclohexyl-1H-pyrazol-3-ylamino)-6,7-dihydro-5H-cyclopenta[d]pyrimidin-2-yl)-N,N-dimethylpyrrolidine-2-carboxamide]

inhibition at 1 µM (IGF-1R): < 35% | inhibition at 0.1 µM (Trk B): > 60% | inhibition at 0.1 µM (Trk A): > 60% | inhibition at 1 µM (IR [1]): ≤ 40% | inhibition at 0.1 µM (Trk C): > 60%
Structure (SMILES): O=C(C1CCCN1c1nc2c(c(Nc3cc(C4CCCC4)[nH]n3)n1)CCC2)N1CCCC1 (stereo not shown) [Compound 112a, (1-(4-(5-cyclopentyl-1H-pyrazol-3-ylamino)-6,7-dihydro-5H-cyclopenta[d]pyrimidin-2-yl)pyrrolidin-2-yl)(pyrrolidin-1-yl)methanone]

inhibition at 0.1 µM (Trk B): < 39% | inhibition at 0.1 µM (Trk A): < 39% | inhibition at 0.1 µM (Trk C): 40 to 59%
Structure (SMILES): CN(C)C(=O)C1CC(O)CN1c1nc2c(c(Nc3cc(C4CCCC4)[nH]n3)n1)CCC2 (stereo not shown) [Compound 110b, 1-(4-(5-cyclopentyl-1H-pyrazol-3-ylamino)-6,7-dihydro-5H-cyclopenta[d]pyrimidin-2-yl)-4-hydroxy-N,N-dimethylpyrrolidine-2-carboxamide]

inhibition at 0.1 µM (Trk B): 40 to 59% | inhibition at 0.1 µM (Trk A): 40 to 59% | inhibition at 0.1 µM (Trk C): > 60%
Structure (SMILES): O=C(C1CC(O)CN1c1nc2c(c(Nc3cc(C4CCCC4)[nH]n3)n1)CCC2)N1CCCCC1 (stereo not shown) [Compound 108b, (1-(4-(5-cyclopentyl-1H-pyrazol-3-ylamino)-6,7-dihydro-5H-cyclopenta[d]pyrimidin-2-yl)-4-hydroxypyrrolidin-2-yl)(piperidin-1-yl)methanone]

inhibition at 0.1 µM (Trk A): 40 to 59% | inhibition at 0.1 µM (Trk C): > 60%
Structure (SMILES): O=C(C1CCCN1c1nc2c(c(Nc3cc(C4CCCCC4)[nH]n3)n1)CCC2)N1CCCCC1 (stereo not shown) [Compound 113b, (1-(4-(5-cyclohexyl-1H-pyrazol-3-ylamino)-6,7-dihydro-5H-cyclopenta[d]pyrimidin-2-yl)pyrrolidin-2-yl)(piperidin-1-yl)methanone]
% Enzyme Inhibition @ 100 nM Trk B (Trk B): +++ (High (60% or higher inhibition, +++))
